{
  "source": "patent US8445431B2",
  "about": "“Ligands having metal binding ability and targeting properties” (The Ohio State University, priority 2004, dated 2013)",
  "key": {"HCV IRES RNA [1]": {"system": "HCV IRES RNA", "assay": "HCV IRES RNA cleavage, denaturing gel", "format": "biochemical", "settings": "RNA 2 μM, RNA to metal complex 1 to 10, 1 mM ascorbic acid, 37° C., 24 hours", "description": "The cleavage of HCV IRES RNA by GGHG-(D) peptide copper complexes was studied. […] The HCV IRES RNA cleavage reactions by peptide copper complexes, free Cu^2+, or other peptide metal complexes were carried out at 37° C. in a buffer of 50 mM HEPES pH 7.0, 100 mM NaCl, 2 mM MgCl2. After reactions, 2 μL of loading buffer containing 10% glycerol, 0.05M EDTA, and 6M urea was added into each 10 μL reaction mixture and was then heated at 95° C. for 5 min before loading into 20% acrylamide, 8M urea gel with 0.5×TAE buffer and running voltage around 100 V for overnight. Before cleavage reaction, HCV IRES RNA was heated at 95° C. for 5 min and cooled to room temperature in order to fold into correct structure.\nThe concentration of RNA in cleavage reaction is 2 μM. The ratio of RNA to metal complexes is 1 to 10. The oxidative cleavage reaction is performed by adding ascorbic acid to a final concentration of 1 mM and a total volume of 10 μL at 37° C. for 24 hours. The result of the cleavage reaction is obtained by running a 20% denaturing polyacrylamide gel. […] No hydrolytic product has been observed from the result. […]\nThe time-dependence of cleavage was also examined. […] After the reaction is finished, the result of the reaction is analyzed by running 20% acrylamide gel. The cleavage effect by peptide copper complexes is analyzed by the intensity of the fluorescent image of each band by Biorad GelDoc. […]"}, "RRE RNA": {"system": "RRE RNA", "assay": "RRE RNA cleavage, denaturing PAGE and mass spectrometry", "format": "biochemical, HIV", "settings": "for RRE RNA cleavage (PAGE / mass spectrometry): in the presence of ascorbate, 1:1 with RRE RNA, 37° C., 6 hours; for t1 of RRE RNA substrate decrease: [RRE]=5 μM, complex/RRE 1:1, 37° C.", "description": "Control reactions were carried out at the same time (FIG. 18). The reactions were quenched with a loading buffer containing 8 M Urea and 0.5 M EDTA, but without dyes. The loading buffer with dyes was run in another lane to control the electrophoresis. The reaction samples were loaded onto either 15% or 20% polyacrylamide/8M urea denaturing gels (from American Bioanalytical) and electrophoresed at 300 V for 8 h. To avoid any influence on fluorescein, the reactions and gel eletrophoresis were performed in the dark. Each experiment was carried out at least in triplicate.\nRNA cleavage reactions were performed in 40 μl total volumes with 100 μM unlabeled RRE RNA, 1:1 concentration ratio of Cu-peptide complex with 1 mM ascorbate in 20 mM Hepes buffer, 100 mM NaCl, pH=7.4 at 37° C. Control reactions were carried out with RRE RNA and ascorbate. ESI/MS was used to get the mass of the cleavage products. Electrospray ionization (ESI) experiments were performed on a Micromass Q-Tof™ II (Micromass, Wythenshawe, UK) mass spectrometer equipped with an orthogonal nanospray source from New Objective, Inc. (Woburn, Mass.) operated in negative ion mode. Sodium Iodide was used for mass calibration for a calibration range of m/z 500-3000. Salt buffers from the RNA samples were removed using ZipTips (Millipore, Billerica, Mass.) following recommended manufacturer protocols. The elutants from the ZipTip were used directly and infused into the electrospray source at a rate of […]. Optimal ESI conditions were: capillary voltage 3000 V, source temperature 110° C. and a cone voltage of 60 V. Q1 was set to optimally pass ions from m/z 500-3000 and all ions transmitted into the pusher region of the TOF analyzer were scanned over m/z (your ramge) with a 1 s integration time. Data was acquired in continuum mode until acceptable averaged data was obtained (10-15 minutes). ESI data was deconvoluted using MaxEnt I provided by Micromass (FIGS. 19-21) and the cleavage sites were assigned (FIG. 22)."}, "[2]": {"system": "pUC19 supercoiled plasmid DNA", "assay": "Plasmid DNA cleavage, agarose gel electrophoresis and quantitation", "format": "biochemical", "description": "Plasmid pUC19 (2686 bp) was purchased from New England Biolabs Inc. The plasmid was transformed into DH5α competent cells, amplified, and pure plasmid isolated using QIAGEN protocols. Fresh plasmid DNA (over 90-95% supercoiled) was prepared before each experiment to avoid contamination by any other form of plasmid DNA. In general, DNA cleavage experiments were performed with 50 μM base pair concentration of pUC19, 25 μM Cu-peptide, and 250 μM ascorbate in 10 mM Tris buffer, pH 7.4, at 37° C. A control reaction was carried out using the same conditions as the cleavage reaction, but lacking the Cu-peptide complex. The reactions were quenched with a loading buffer containing 0.5 M EDTA.\nAgarose gel electrophoresis (0.8%) containing ethidium bromide was performed under standard conditions. DNA samples were run on horizontal gels in 1×TAE buffer for 90 min at […].\nQuantitation of closed circular, nicked and linear DNA was made by densitometric analysis of ethidium bromide containing agarose gels. Quantitation was performed by fluorescence imaging by use of a Gel-Doc 1000 (BioRad) and data analysis with Multianalysis software (version 1.1) provided by the manufacturer using the volume quantitation method. In all cases, background fluorescence was subtracted by reference to a lane containing no DNA. A correction factor of 1.47 was used for supercoiled DNA, since the ability of ethidium bromide to intercalate into supercoiled DNA (form I) is decreased relative to nicked (form II) and linear DNA (form III). The fraction of each form of DNA was calculated by dividing the intensity of each band by the total intensities of all the bands in the lane. All results were obtained from experiments that were performed at least in triplicate.\nConsequently, the reaction was considered in terms of the standard rate law shown in equation 3. The initial rate (V0) corresponding to less than 5% conversion was considered as a function of [complex]^+ (equation 4 and 5). Rate=V=d[DNA]/dt=kobs[complex]t^m (3) • where kobs=kn, [DNA] when t=0, V0=kobs[complex]0^m (4) and ln V0=m ln[complex]0+ln kobs (5) A plot of ln V0 versus ln [[GGH-Cu]^−]0 at constant DNA concentration produced a straight line relationship (R^2=0.99) (FIG. 27A).\nInvestigation of DNA linearization. Following cleavage, the fraction of full length linear DNA, f(III), is related to the number, n2, of double-strand breaks per molecule given by the first term of a Poisson distribution (equation 1). f(III)=n2exp(−n2) (1) The sum of single-strand, n1, and double-strand, n2, breaks per molecule (n1+n2) was determined from the fraction f(I) of supercoiled DNA remaining after treatment with the [peptide-Cu] reagent. f(I)=exp[−(n1+n2)] […] In these studies, both n1 and n2 were calculated by use of equations (1) and (2)."}, "HCV IRES RNA [3]": {"molecular_target": "HCV IRES RNA", "assay": "Binding to fluorescein-labeled HCV IRES, 96-well fluorescent reader", "settings": "10 nM HCV IRES, 50 mM HEPES pH 7.0, 100 mM NaCl, 2 mM MgCl2; read-out: dissociation constant between HCV IRES and the ligand", "description": "The binding constants for peptides to HCV IRES was determined by fluorescence methods. The sequence of the HCV IRES RNA is: […] (SEQ ID NO: 33). The sequence of the peptide recognition motif is: Y-(D)-RFK. The sequence of the metal binding peptide is: GGH. The sequence of the ligand having a metal binding domain and a recognition domain is GGHGY-(D)-RFK, where (D) indicates a (D) configuration amino acid.\nA 10 nM HCV IRES with a fluoroscein label was titrated with increasing concentrations of the ligand, ranging from 5 to 1000 nM in a 50 mM HEPES pH 7.0, 100 mM NaCl, 2 mM MgCl2 to a total volume […]. The water used in this experiment was treated with DEPC at 37° C. overnight and autoclaved. HCV IRES RNA was heated at 95° C. for three minutes, and then slowly cooled to the room temperature. The binding event was determined by 96-well fluorescent reader with excitation wavelength at 494 nm and emission wavelength at 520 nm. The result data was plotted as fraction versus peptide concentration (FIG. 29) and then fitted with one site-binding model, where y is equal to API, and x is peptide concentration. y=Bx/(Kd+x)"}, "HIV TAR RNA": {"molecular_target": "HIV TAR RNA", "assay": "Fluorescence quenching binding to 5' FL-labeled TAR RNA (binding specificity)", "settings": "20 mM Hepes, 100 mM NaCl, pH 7.4, room temperature", "description": "(§1) A 6 nM solution of 5′-fluorescein labeled RRE RNA (molecular concentration) was prepared in 20 mM Hepes buffer, 100 mM NaCl, pH=7.4. A 1 μl aliquot of 5 μM (for RRE test) or 25 μM (for TAR test) peptide or Cu-peptide complex was measured in a 300 μl quartz cuvette at room temperature using a Perkin Elmer LS50B spectrofluorimeter, with excitation (slit=6) and emission (slit=6) wavelengths set at 490 nm and 515 nm, respectively. Dissociation constants were obtained by fitting fluorescence quenching date to a one site binding equation r=Bx/(Kd+X) with binding function r (where r=(yt−y0)/(yfinal−yinitial)) versus x as peptide or Cu-peptide complex concentration (FIG. 17). The values for the dilution effect have already been subtracted from each point. Since our Cu-Rev1 complex has very little absorbance (ε515˜30 M^−1cm^−1), the inner filter effect is negligible in this assay."}, "[4]": {"system": "GFP-RRE construct (RRE RNA fused downstream of GFP mRNA)", "format": "cell-based, Escherichia coli", "settings": "10 μM final concentration; for GFP (GFP-RRE construct) expression, fluorescence intensity/total protein (mg) of control: control without any treatment", "quoted_text": "Escherichia coli strain BL21 (DE3) cells containing pET-21 GFP (as non-specific cleavage control) or pET-21GFP-RRE plasmid were grown to an OD600 of around 0.6, and the over-expression was induced with 0.5 mM IPTG at 37° C. incubation. The cell pellets from 500 1 culture were resuspended in resuspension buffer,^3 then lysed with sonicating. After centrifugation (14,000 rpm for 20 min), the cell lysate for each sample was transferred onto 96 well plate and the fluorescence of GFP protein was monitored by a Perkin Elmer LS50B spectrofluorimeter. Excitation and emission wavelengths were set to 390 nm and 510 nm, respectively. The amount of total protein in each cell lysate was measured with Bio-Rad protein assay.\nBasically, once the RRE RNA fused downstream of the GFP mRNA is recognized and cleaved by metal-rev peptide complexes, the expression level of GFP protein will decrease accordingly, which can be monitored by the fluorescence intensity.\nThe expression level of GFP (GFP-RRE construct) was managed by the fluorescent emission intensity at 510 nm, with λex=390 nm. […] To correct the influence of the total number of cells lysated, the fluorescent emission intensity at 510 nm was divided by the amount of total protein for each sample."}, "HIV RRE RNA": {"molecular_target": "HIV RRE RNA", "assay": "Fluorescence quenching binding to 5'-fluorescein labeled RRE RNA", "settings": "20 mM Hepes, 100 mM NaCl, pH 7.4, room temperature", "description": "as §1"}},
  "note": "No end group written: not given here.",
  "data": [
    {"compound": "[Cu+2]", "note": "[Cu^2+(aq), reference compound]", "values": [
      {"measurement": "HCV IRES RNA cleavage (gel)", "setting": "HCV IRES RNA [1]", "value": "efficiency is significantly lower"},
      {"measurement": "RRE RNA cleavage (PAGE / mass spectrometry)", "setting": "RRE RNA", "value": "random cleavage"},
      {"measurement": "DNA cleavage products / pattern on gel", "setting": "[2]; with ascorbate", "value": "smear pattern"}
    ]},
    {"compound": "GGHGY-(D)-RFK [the ligand]", "values": [
      {"measurement": "Kd", "setting": "HCV IRES RNA [3]", "value": 5.2, "unit": "nM"}
    ]},
    {"compound": "GGHTRQARRNRRRRWRERQR [Rev1]", "values": [
      {"measurement": "RRE RNA cleavage (PAGE / mass spectrometry)", "setting": "RRE RNA", "value": "no reaction was observed"},
      {"measurement": "Kd", "setting": "HIV TAR RNA", "value": "~5000", "unit": "nM"},
      {"measurement": "GFP (GFP-RRE construct) expression, fluorescence intensity/total protein (mg) of control", "setting": "[4]", "value": "around 40%"},
      {"measurement": "Kd", "setting": "HIV RRE RNA", "value": "~30", "unit": "nM"}
    ]},
    {"compound": "TRQARRNRRRRWRERQR [Rev peptide, reference compound]", "values": [
      {"measurement": "effect on GFP (GFP-RRE construct) expression", "setting": "[4]", "value": "No decrease"}
    ]},
    {"compound": "[GGH-Cu]^−: complex of peptide GGH with divalent copper (Gly-Gly-His; also: complex with divalent copper)", "values": [
      {"measurement": "time to quantitative production of nicked plasmid DNA (form II)", "setting": "[2]; [DNA]=50 μM, complex 25 μM, ascorbate 250 μM", "value": "≤ 28", "unit": "min"},
      {"measurement": "kobs, pseudo-first order disappearance of supercoiled DNA", "setting": "[2]; [DNA]=50 μM, complex 25 μM, ascorbate 250 μM, 10 mM Tris pH 7.4, 37° C.", "value": "~0.07", "unit": "min⁻¹"},
      {"measurement": "k2, second-order rate constant of DNA cleavage", "setting": "[2]; from ln V0 plots, with ascorbate", "value": "~39", "unit": "M⁻¹ s⁻¹"},
      {"measurement": "concentration at which DNA cleavage activity is evident", "setting": "[2]; in the presence of ascorbate", "value": 10, "unit": "µM"},
      {"measurement": "DNA cleavage products / pattern on gel", "setting": "[2]; with ascorbate", "value": "linear DNA was not found"}
    ]},
    {"compound": "copper complex of Rev1 peptide GGHTRQARRNRRRRWRERQR [Cu-Rev1]", "values": [
      {"measurement": "RRE RNA cleavage in the absence of ascorbate", "setting": "RRE RNA; hydrolytic condition", "value": "much slower pace"},
      {"measurement": "t1 of RRE RNA substrate decrease", "setting": "RRE RNA; hydrolytic condition", "value": 6.36, "unit": "h"},
      {"measurement": "RRE RNA cleavage (PAGE / mass spectrometry)", "setting": "RRE RNA; listed as Cu-Rev1 peptide complex", "value": "three specific cleavage sites"},
      {"measurement": "RRE RNA cleavage (PAGE / mass spectrometry)", "setting": "RRE RNA; listed as Cu-peptide complex", "value": "effective"},
      {"measurement": "t1 of RRE RNA substrate decrease", "setting": "RRE RNA; oxidative condition with ascorbate", "value": 4.75, "unit": "h"},
      {"measurement": "Kd", "setting": "HIV TAR RNA", "value": "~5000", "unit": "nM"},
      {"measurement": "GFP (GFP-RRE construct) expression, fluorescence intensity/total protein (mg) of control", "setting": "[4]", "value": "around 40%"},
      {"measurement": "Kd", "setting": "HIV RRE RNA", "value": "~35", "unit": "nM"}
    ]}
  ]
}
